Common to all, as to assay type: biochemical
One assay concerns the target PDE3 (Homo sapiens, UniProt Q14432). As to the kind of experiment: Inhibition of PDE isoenzymes: PDE3 (cGMP-inhibited), homogenates of human blood platelets. The conditions noted are these: read-out: -log IC50, PDE3 (converted). As to the method: (§1) The PDE activity was determined according to Thompson et al. (1) with some modifications (2). The test samples contained 40 mM tris HCl (pH 7.4), 5 mM MgCl2, 0.5 μM cAMP or cGMP, [^3 H] cAMP or [^3 H]cGMP (about 50,000 cpm/sample), the PDE isoenzyme-specific additions described in greater detail below, the indicated concentrations of inhibitor and an aliquot of the enzyme solution in a total sample volume of 200 μl. […] After preincubation at 37° C. for 5 minutes, the reaction was started by addition of the substrate (cAMP or cGMP). The samples were incubated at 37° C. for a further 15 min. The reaction was terminated by addition of 50 μl of 0.2N HCl. After cooling on ice for 10 minutes and addition of 25 μg of 5'-nucleotidase (snake venom from Crotalus atrox), the mixture was again incubated at 37° C. for 10 min and the samples were then applied to QAE Sephadex A-25 columns. The columns were eluted with 2 ml of 30 mM ammonium formate (pH 6.0). The radioactivity of the eluate was measured and corrected by the corresponding blank values. The proportion of hydrolyzed nucleotide in no case exceeded 20% of the original substrate concentration.
PDE3 (cGMP-inhibited) and PDE5 (cGMP-specific) were investigated in homogenates of human blood platelets [Schudt et al. (4)] using cAMP or cGMP as a substrate.
(§2) The IC50 values were determined from the concentration-inhibition curves by nonlinear regression using the GraphPad InPlot™ program (GraphPad Software Inc., Philadelphia, U.S.A.).
In Table 1 below, the inhibitory concentrations determined according to Section A1 [inhibitory concentrations as -log IC50 (mol/l)] for the compounds according to the invention are indicated for various PDE isoenzymes. The numbers of the compounds correspond to the numbers of the examples.

A further assay concerns the target PDE4. As to the kind of experiment: Inhibition of PDE isoenzymes: PDE4 (cAMP-specific), cytosol of human polymorphonuclear leukocytes. The settings on record: PDE4, cytosol of human PMNL, cAMP as substrate, motapizone (1 μM) present.
The next assay deals with T1, PDE5 (Homo sapiens, UniProt O76074).
T1 construct: were investigated in homogenates of human blood platelets; from tissue; host or cells: human blood platelets, homogenate
As to the kind of experiment: Inhibition of PDE isoenzymes: PDE5 (cGMP-specific), homogenates of human blood platelets. The conditions noted are these: read-out: -log IC50, PDE5 (converted). As to the method:
as §1, with “The columns were eluted with 2 ml of 30 mM ammonium formate (pH 6.0).” left out, “The proportion of hydrolyzed nucleotide in no case exceeded 20% of the original substrate concentration.” left out
as §2
(§3) In Table 1 below, the inhibitory concentrations determined according to Section A1 [inhibitory concentrations as -log IC50 (mol/l)] for the compounds according to the invention are indicated for various PDE isoenzymes. […]

A further assay concerns the target PDE1. As to the kind of experiment: Inhibition of PDE isoenzymes: PDE1 (Ca^2+/calmodulin-dependent) from bovine brain. The conditions noted are these: Ca^2+ (1 mM), calmodulin (100 nM), cGMP as substrate.
In another assay the target is T2, PDE2 (Rattus norvegicus, UniProt Q01062).
T2 construct: from rat hearts was purified chromatographically; from tissue; host or cells: rat heart, chromatographically purified
T2 sequence (Q01062 1-928): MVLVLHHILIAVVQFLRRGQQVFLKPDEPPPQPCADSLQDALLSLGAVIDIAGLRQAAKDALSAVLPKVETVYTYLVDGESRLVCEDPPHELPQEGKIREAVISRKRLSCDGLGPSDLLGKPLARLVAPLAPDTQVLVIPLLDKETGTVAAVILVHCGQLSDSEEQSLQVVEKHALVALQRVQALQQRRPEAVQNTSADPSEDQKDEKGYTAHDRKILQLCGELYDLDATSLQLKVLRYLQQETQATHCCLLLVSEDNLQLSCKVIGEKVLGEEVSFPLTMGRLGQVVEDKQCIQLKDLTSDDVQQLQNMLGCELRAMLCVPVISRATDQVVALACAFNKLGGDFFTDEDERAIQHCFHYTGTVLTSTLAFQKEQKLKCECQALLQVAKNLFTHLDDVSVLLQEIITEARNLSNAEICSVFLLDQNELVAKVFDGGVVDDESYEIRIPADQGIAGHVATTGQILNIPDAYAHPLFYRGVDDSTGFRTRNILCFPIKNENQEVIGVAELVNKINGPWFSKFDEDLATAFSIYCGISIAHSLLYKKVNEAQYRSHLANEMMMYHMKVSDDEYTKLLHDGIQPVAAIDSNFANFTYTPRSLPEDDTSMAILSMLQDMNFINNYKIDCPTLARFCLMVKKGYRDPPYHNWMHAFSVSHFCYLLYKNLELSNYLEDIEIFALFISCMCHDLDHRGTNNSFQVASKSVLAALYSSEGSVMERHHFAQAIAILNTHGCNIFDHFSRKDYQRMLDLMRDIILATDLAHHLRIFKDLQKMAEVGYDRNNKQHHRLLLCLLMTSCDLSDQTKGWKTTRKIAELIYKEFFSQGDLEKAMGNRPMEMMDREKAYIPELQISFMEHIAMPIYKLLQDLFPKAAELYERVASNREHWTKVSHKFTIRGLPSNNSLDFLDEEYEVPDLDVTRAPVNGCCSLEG
The assay can be described thus: Inhibition of PDE isoenzymes: PDE2 (cGMP-stimulated) from rat hearts. The settings on record: cGMP (5 μM), cAMP as substrate, read-out: -log IC50, PDE2 (converted). The procedure: as §1, with “The columns were eluted with 2 ml of 30 mM ammonium formate (pH 6.0).” left out, “The proportion of hydrolyzed nucleotide in no case exceeded 20% of the original substrate concentration.” left out
as §2, §3

This is an account of results in US6008215A, “Benzonaphthyridines as bronchial therapeutics” (Byk Gulden Lomberg Chemische Fabrik GmbH, priority 1996, dated 1999).

Each structure is given as a SMILES string. Structures can show the parent of a compound that is named as a salt. A value given as a limit tells only on which side of the number the result lay.

Chain of PDE3 (Q14432 whole entry): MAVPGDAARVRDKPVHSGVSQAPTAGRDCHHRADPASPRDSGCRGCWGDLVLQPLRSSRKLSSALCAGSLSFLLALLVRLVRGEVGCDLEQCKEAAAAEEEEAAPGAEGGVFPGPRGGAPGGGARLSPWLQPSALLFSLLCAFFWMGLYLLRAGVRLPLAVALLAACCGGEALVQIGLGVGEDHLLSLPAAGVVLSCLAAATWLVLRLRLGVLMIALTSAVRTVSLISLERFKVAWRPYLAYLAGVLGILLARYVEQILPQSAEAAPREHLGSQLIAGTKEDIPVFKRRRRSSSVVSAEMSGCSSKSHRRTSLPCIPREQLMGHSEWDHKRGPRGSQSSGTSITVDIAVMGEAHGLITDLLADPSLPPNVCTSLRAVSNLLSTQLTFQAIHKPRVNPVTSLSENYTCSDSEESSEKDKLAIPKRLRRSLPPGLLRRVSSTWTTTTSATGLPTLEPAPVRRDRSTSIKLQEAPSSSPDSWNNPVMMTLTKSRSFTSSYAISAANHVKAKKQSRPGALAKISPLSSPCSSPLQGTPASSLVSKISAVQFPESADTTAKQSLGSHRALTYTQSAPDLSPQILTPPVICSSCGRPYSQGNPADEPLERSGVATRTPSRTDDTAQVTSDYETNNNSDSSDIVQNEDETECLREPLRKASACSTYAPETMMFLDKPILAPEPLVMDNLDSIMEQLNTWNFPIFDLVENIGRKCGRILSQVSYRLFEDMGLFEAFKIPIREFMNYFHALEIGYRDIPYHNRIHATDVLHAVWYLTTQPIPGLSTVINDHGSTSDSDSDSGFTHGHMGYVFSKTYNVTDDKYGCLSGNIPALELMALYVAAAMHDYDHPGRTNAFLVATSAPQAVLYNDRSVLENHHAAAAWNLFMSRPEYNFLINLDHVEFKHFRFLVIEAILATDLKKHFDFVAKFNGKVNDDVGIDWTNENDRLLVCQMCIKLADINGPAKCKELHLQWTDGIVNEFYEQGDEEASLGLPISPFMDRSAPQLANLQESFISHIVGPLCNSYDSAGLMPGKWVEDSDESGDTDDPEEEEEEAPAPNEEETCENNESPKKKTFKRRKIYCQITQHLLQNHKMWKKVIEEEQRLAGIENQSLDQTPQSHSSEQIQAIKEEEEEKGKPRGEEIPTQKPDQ

As usually defined, the IC50 is the concentration that gives 50% inhibition. On to `COc1cc2c(cc1OC)[C@H]1CN(C)CC[C@H]1N=C2c1ccc(C(=O)OC(C)C)cc1` (single isomer, unassigned) [Compound 3, (-)-cis-8,9-Dimethoxy-6-(4-isoropoxycarbonylphenyl)-2-methyl-1,2,3,4,4a,10b-hexahydrobenzo[c][1,6]naphthyridine hydrochloride], for which the half-inhibitory concentration (IC50) at PDE3 is 72.4 nM. At PDE4, the “-log IC50, PDE4” value was 6.45.

For `CCOc1cc2c(cc1OCC)[C@@H]1CN(C)CC[C@@H]1N=C2c1ccc(C(=O)OC)cc1.Cl` (single isomer, unassigned) [Compound 4, (-)-cis-8,9-Diethoxy-6-(4-methoxycarbonylphenyl)-2-methyl-1,2,3,4,4a,10b-hexahydrobenzo[c][1,6]naphthyridine hydrochloride], the IC50 is 3550 nM on PDE5, 214 nM at PDE3 and 15800 nM at PDE2. Also, on PDE1, the “-log IC50, PDE1” value was < 4 -log(mol/l). For the same compound, the “-log IC50, PDE4” value on PDE4 came to 7.54.

Consider `CCOc1cc2c(cc1OCC)[C@@H]1CN(C)CC[C@@H]1N=C2c1ccc(C(=O)OC(C)C)cc1.Cl` (single isomer, unassigned) [Compound 5, (-)-cis-8,9-Diethoxy-6-(4-isopropoxycarbonylphenyl)-2-methyl-1,2,3,4,4a,10b-hexahydrobenzo[c][1,6]naphthyridine hydrochloride], for which the IC50 at PDE3 is 70.8 nM. In addition, the “-log IC50, PDE4” value at PDE4 is reported as 7.75.

On to `CCOc1cc2c(cc1OCC)[C@H]1CN(C)CC[C@H]1N=C2c1ccc(C(=O)N(C(C)C)C(C)C)cc1` (single isomer, unassigned) [Compound 11, (-)-cis-8,9-Diethoxy-6-(4-diisopropylaminocarbonylphenyl-2-methyl-1,2,3,4,4a,10b-hexahydrobenzo[c][1,6]naphthyridine hydrochloride], for which the IC50 at PDE3 was 58.9 nM. Moreover, at PDE4, the “-log IC50, PDE4” value was 7.85.

Turning to `CCOc1cc2c(cc1OCC)[C@H]1CN(C)CC[C@H]1N=C2c1ccc(C(=O)N(C(C)C)C2CCCCC2)cc1` (single isomer, unassigned) [Compound 16, (+)-cis-8,9-Diethoxy-6-(4-N-cyclohexyl-N-isopropylaminocarbonylphenyl)-2-methyl-1,2,3,4,4a,10b-hexahydrobenzo[c][1,6]naphthyridine hydrochloride], the concentration for half-maximal inhibition (IC50) at PDE3 was 186 nM. At PDE4, the “-log IC50, PDE4” value stood at 7.96.

For the compound `CCCCN(CCCC)C(=O)c1ccc(C2=N[C@H]3CCN(C)C[C@H]3c3cc(OCC)c(OCC)cc32)cc1.Cl` (single isomer, unassigned) [Compound 17, (+)-cis-8,9-Diethoxy-6-(4-dibutylaminocarbonylphenyl)-2-methyl-1,2,3,4,4a,10b-hexahydrobenzo[c][1,6]naphthyridine hydrochloride], the IC50 on PDE3 was 417 nM. At PDE4, the “-log IC50, PDE4” value came out at 7.94.

For `CCOc1cc2c(cc1OCC)[C@@H]1CN(C)CC[C@@H]1N=C2c1ccc(C(=O)N2CCCCCC2)cc1.Cl` (single isomer, unassigned) [Compound 18, (-)-cis-8,9-Diethoxy-6-[4-(hexahydroazepin-1-yl-carbonyl)phenyl]-2-methyl-1,2,3,4,4a,10b-hexahydrobenzo[c][1,6]naphthyridine hydrochloride], on PDE3, the half-inhibitory concentration (IC50) is 182 nM. In addition, the “-log IC50, PDE4” value on PDE4 is given as 7.87.

Take `CCOc1cc2c(cc1OC)C(c1ccc(C(=O)N(C(C)C)C(C)C)cc1)=N[C@H]1CCN(C)C[C@@H]21.Cl` (single isomer, unassigned) [Compound 19, (-)-cis-9-Ethoxy-8-methoxy-6-(4-diisopropylaminocarbonylphenyl)-2-methyl-1,2,3,4,4a,10b-hexahydrobenzo[c][1,6]naphthyridine hydrochloride]: the IC50 at PDE3 is 27.5 nM. Also, the “-log IC50, PDE4” value at PDE4 is 8.18.

Regarding `CCOc1cc2c(cc1OC)C(c1ccc(C(=O)OC)cc1)=N[C@H]1CCN(C)C[C@@H]21.Cl` (single isomer, unassigned) [Compound 21, (-)-cis-9-Ethoxy-8-methoxy-6-(4-methoxycarbonylphenyl)-2-methyl-1,2,3,4,4a,10b-hexahydrobenzo[c][1,6]naphthyridine hydrochloride], at PDE3, the concentration for half-maximal inhibition (IC50) was 457 nM. Also, the “-log IC50, PDE4” value on PDE4 is 7.67.

With `CCCCN(CCCC)C(=O)c1ccc(C2=N[C@H]3CCN(C)C[C@H]3c3cc(OCC)c(OC)cc32)cc1.Cl` (single isomer, unassigned) [Compound 23, (-)-cis-9-Ethoxy-8-methoxy-6-(4-dibutylaminocarbonylphenyl)-2-methyl-1,2,3,4,4a,10b-hexahydrobenzo[c][1,6]naphthyridine hydrochloride], the IC50 on PDE3 was 229 nM. For the same compound, the “-log IC50, PDE4” value at PDE4 is listed as 8.56.

On to `CCOc1cc2c(cc1OC)C(c1ccc(C(=O)N3CCCCCC3)cc1)=N[C@H]1CCN(C)C[C@@H]21` (single isomer, unassigned) [Compound 24, (-)-cis-9-Ethoxy-8-methoxy-6-[4-(hexahydroazepin-1-yl-carbonyl)phenyl]-2-methyl-1,2,3,4,4a,10b-hexahydrobenzo[c][1,6]naphthyridine], for which the IC50 at PDE3 was 22.9 nM. Also, the “-log IC50, PDE4” value at PDE4 was determined as 8.51.
